Measured values taken from patent publication US8518450B2, “Nanoparticle carriers for drug administration and process for producing same” (CSIR, priority 2008, dated 2013).

What was measured:
[1] = INH stability assessment using RP-HPLC; format: physicochemical; conditions: formulation with lactose
Experimental: The stability of INH spray dried powders was assessed by reverse phase-high performance liquid chromatography-analysis (RP-HPLC) using Shimadzu machine supplied with Photodiode Array (PDA) detector.
The following characteristics were applied: a Column Phenomenex [(C18 (5 μm); (250×4.6 mm ID)], a mobile phase of 5% (v/v) acetonitrile with 95% (v/v) buffer NaH2PO4 (pH 6.8), at a flow rate of 1 ml/min and at a temperature of 30° C. The detection was performed using PDA at λ=259 nm, on a total injection volume of 20 μl.

[2] = Drug incorporation / encapsulation efficiency of INH (UV-Vis); format: physicochemical; conditions: spray dried PLGA nanoparticles, PLGA:INH 2:1
Experimental: The amount of the hydrophilic drug Isoniazid that was entrapped in the particle powder after the nanoencapsulation process was measured in triplicate using a spectrophotometric method (UV-Vis, Thermo Spectronic Heliosα). The encapsulation efficiency of INH in nanoparticles was determined as the mass ratio of the entrapped INH to the theoretical amount of INH used in the preparation. For that, 50 mg of precipitated particles were re-suspended in 20 ml of deionised water, centrifuged (10 000 rpm/10 C/5 min) to remove the un-encapsulated drug and the supernatant was subject to UV-Vis Spectrophotometer, read at λ=262 nm for INH assessment. The encapsulated amount of INH was determined by subtracting INH in the supernatant from total initial INH amount.

For `NNC(=O)c1ccncc1` [INH, isoniazid], the “stability of INH in spray dried powders (HPLC)” value [1] was “degradation of INH” and the “encapsulation efficiency of INH” value [2] was about 60%.
